Results reported in ChEMBL document CHEMBL4673401 (ACS Med Chem Lett, 2021).
Blank lines part the entries; values can stand above or below the molecule they belong to.

Key:
[1] = target: T1, Indoleamine 2,3-dioxygenase 1 (Homo sapiens, UniProt P14902); assay: Inhibition of IDO1 in IFNgamma-stimulated human HeLa cells using L-tryptophan as substrate measured after 48 hrs
[2] = target: T1, Indoleamine 2,3-dioxygenase 1; assay: Inhibition of human IDO1 expressed in Escherichia coli Rosetta using tryptophan as substrate incubated for 1 hr by methylene blue based assay
[3] = target: Tryptophan 2,3-dioxygenase (Homo sapiens, UniProt P48775); assay: Inhibition of human TDO expressed in Escherichia coli Rosetta using tryptophan as substrate incubated for 1 hr by methylene blue based assay
Sequence of Tryptophan 2,3-dioxygenase (P48775 whole entry): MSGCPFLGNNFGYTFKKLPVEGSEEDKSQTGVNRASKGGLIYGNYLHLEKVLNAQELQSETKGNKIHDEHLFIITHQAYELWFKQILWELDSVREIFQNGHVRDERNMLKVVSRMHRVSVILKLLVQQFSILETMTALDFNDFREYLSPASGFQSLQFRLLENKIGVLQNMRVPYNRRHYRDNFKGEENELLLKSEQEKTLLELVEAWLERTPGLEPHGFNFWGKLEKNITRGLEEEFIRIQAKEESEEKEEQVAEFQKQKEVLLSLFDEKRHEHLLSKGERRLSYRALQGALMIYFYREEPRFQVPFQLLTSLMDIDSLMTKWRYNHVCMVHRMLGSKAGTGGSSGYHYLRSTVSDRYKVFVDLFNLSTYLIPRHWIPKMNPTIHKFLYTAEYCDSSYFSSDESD

[4] = Toxicity in humanized PD-1 mouse xenografted with mouse MC38 cells assessed as effect on body weight at 150 to 600 mg/kg, po bid for 14 days in combination with PD-1 antibody at 3 mg/kg, ip qod for 8 days; assay type: organism-based; conditions: in vivo, 336 h, dose 150-600 mg/kg, time 14 day
MC-38 [5] = assay: Antitumor activity against mouse MC38 cells xenograted in po dosed humanized PD-1 mouse assessed as tumor growth inhibition administered twice for 14 days in combination with PD-1 antibody at 3 mg/kg, ip qod for 8 days by digital caliper method; assay type: functional, organism-based; conditions: time 14.0 day
MC-38 [6] = assay: Antitumor activity against mouse MC38 cells xenograted in humanized PD-1 mouse assessed as tumor growth inhibition at 600 mg/kg, po bid for 14 days in combination with PD-1 antibody at 3 mg/kg, ip qod for 8 days by digital caliper method relative to control; assay type: functional; conditions: MC-38, 336 h, time 14 day, read-out: TGI
MC-38 [7] = assay: Antitumor activity against mouse MC38 cells xenograted in humanized PD-1 mouse assessed as tumor growth inhibition at 300 mg/kg, po bid for 14 days in combination with PD-1 antibody at 3 mg/kg, ip qod for 8 days by digital caliper method relative to control; assay type: functional; conditions: MC-38, 336 h, time 14 day, read-out: TGI
MC-38 [8] = assay: Antitumor activity against mouse MC38 cells xenograted in humanized PD-1 mouse assessed as tumor growth inhibition at 150 mg/kg, po bid for 14 days in combination with PD-1 antibody at 3 mg/kg, ip qod for 8 days by digital caliper method relative to control; assay type: functional; conditions: MC-38, 336 h, time 14 day, read-out: TGI
[9] = target: Indoleamine 2,3-dioxygenase 1 (Mus musculus) (UniProt P28776); assay: In vivo inhibition of IDO1 in C57BL/6 mouse assessed as reduction in kynurenine level in plasma at 300 mg/kg, po administered as single dose measured after 2 hrs relative to control; assay type: functional, organism-based
Sequence of Indoleamine 2,3-dioxygenase 1 (Mus musculus) (P28776 whole entry, looked up): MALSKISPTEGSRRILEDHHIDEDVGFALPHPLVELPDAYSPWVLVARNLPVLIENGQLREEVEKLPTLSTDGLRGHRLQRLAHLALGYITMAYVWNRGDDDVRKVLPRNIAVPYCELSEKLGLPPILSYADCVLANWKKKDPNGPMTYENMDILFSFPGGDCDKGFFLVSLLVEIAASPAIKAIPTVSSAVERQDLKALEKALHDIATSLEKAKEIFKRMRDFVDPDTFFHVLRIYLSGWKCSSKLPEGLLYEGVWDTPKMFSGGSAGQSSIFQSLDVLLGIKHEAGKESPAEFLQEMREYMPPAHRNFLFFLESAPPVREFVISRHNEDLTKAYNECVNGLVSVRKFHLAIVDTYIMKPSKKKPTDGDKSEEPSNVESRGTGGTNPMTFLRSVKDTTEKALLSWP

[10] = Half life in human liver microsomes; assay type: ADME, Microsome
[11] = Half life in rat liver microsomes; assay type: ADME, Microsome
[12] = Protein binding in human plasma by rapid equilibrium dialysis method; assay type: ADME, cell-free; conditions: read-out: PPB (converted)
[13] = Protein binding in dog plasma by rapid equilibrium dialysis method; assay type: ADME, cell-free, Canis lupus familiaris; conditions: read-out: PPB (converted)
[14] = Protein binding in rat plasma by rapid equilibrium dialysis method; assay type: ADME, cell-free; conditions: read-out: PPB (converted)
[15] = target: Voltage-gated inwardly rectifying potassium channel KCNH2 (Homo sapiens, UniProt Q12809); assay: Inhibition of human ERG expressed in CHO-K1 cells at -90 mV holding potential by automated patch-clamp method; assay type: cell-based
Sequence of Voltage-gated inwardly rectifying potassium channel KCNH2 (Q12809 whole entry): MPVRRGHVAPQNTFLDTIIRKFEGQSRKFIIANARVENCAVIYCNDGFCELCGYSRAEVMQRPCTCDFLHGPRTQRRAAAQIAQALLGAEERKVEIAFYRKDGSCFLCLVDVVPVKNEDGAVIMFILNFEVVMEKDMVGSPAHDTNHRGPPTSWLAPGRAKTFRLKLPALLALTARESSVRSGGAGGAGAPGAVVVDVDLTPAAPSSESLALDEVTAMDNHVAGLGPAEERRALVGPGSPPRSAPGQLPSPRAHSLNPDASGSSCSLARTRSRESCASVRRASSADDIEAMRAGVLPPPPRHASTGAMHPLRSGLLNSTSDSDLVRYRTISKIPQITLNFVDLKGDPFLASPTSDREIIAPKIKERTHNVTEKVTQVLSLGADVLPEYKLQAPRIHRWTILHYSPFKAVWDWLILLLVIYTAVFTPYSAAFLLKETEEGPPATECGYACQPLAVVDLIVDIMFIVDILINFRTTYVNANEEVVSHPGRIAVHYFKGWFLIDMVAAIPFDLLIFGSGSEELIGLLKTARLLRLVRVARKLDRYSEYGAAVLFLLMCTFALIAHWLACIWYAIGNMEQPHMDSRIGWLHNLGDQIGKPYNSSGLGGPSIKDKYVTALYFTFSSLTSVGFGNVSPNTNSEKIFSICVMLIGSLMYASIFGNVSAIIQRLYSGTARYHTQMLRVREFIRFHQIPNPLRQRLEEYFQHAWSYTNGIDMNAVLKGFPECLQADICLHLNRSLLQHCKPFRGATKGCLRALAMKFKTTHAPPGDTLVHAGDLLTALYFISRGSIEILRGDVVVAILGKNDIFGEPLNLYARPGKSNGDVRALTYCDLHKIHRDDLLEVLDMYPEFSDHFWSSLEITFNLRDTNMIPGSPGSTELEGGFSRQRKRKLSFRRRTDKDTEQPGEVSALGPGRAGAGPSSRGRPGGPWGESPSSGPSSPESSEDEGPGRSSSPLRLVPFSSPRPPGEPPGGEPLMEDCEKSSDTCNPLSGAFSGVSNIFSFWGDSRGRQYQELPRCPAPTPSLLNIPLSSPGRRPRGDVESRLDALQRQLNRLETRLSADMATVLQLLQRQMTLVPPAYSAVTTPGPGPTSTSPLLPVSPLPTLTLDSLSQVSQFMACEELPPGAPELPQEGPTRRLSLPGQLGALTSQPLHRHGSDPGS

Cytochrome P450 3A4 = Cytochrome P450 3A4 (Homo sapiens, UniProt P08684); assay: Inhibition of CYP3A4 in human liver microsomes using midazolam as substrate incubated for 10 mins in presence of NADPH by UHPLC-MS/MS analysis; assay type: ADME
Sequence of Cytochrome P450 3A4 (P08684 whole entry): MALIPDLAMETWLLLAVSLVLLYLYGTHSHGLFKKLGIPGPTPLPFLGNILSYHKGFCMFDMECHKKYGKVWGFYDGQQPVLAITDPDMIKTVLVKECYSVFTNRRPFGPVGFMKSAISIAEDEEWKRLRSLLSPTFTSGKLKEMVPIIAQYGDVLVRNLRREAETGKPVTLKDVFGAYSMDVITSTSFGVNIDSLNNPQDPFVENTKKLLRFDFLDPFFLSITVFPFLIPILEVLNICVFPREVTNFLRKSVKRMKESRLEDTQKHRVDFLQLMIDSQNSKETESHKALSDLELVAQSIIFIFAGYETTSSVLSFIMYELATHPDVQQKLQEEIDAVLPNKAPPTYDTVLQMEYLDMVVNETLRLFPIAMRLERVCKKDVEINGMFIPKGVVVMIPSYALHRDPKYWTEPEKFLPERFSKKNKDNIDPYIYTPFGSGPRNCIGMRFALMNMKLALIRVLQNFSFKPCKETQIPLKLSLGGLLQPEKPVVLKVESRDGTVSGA

Cytochrome P450 2D6 = Cytochrome P450 2D6 (Homo sapiens, UniProt P10635); assay: Inhibition of CYP2D6 in human liver microsomes using dextromethorphan as substrate incubated for 10 mins in presence of NADPH by UHPLC-MS/MS analysis; assay type: ADME
Sequence of Cytochrome P450 2D6 (P10635 whole entry): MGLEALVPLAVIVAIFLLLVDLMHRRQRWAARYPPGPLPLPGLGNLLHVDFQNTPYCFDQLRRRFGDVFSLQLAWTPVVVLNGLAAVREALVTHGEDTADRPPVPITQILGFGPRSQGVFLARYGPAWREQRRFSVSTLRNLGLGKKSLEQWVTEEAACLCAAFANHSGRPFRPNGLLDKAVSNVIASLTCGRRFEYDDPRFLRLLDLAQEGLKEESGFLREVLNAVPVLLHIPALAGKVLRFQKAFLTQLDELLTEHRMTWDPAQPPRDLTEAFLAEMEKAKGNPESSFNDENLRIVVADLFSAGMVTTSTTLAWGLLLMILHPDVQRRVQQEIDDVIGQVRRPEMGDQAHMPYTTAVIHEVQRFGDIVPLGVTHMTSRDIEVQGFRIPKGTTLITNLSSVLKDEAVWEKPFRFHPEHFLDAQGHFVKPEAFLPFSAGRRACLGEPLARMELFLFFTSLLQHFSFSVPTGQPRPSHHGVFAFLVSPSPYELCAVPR

Cytochrome P450 2C19 = Cytochrome P450 2C19 (Homo sapiens, UniProt P33261); assay: Inhibition of CYP2C19 in human liver microsomes using S-mephenytoin as substrate incubated for 10 mins in presence of NADPH by UHPLC-MS/MS analysis; assay type: ADME; conditions: read-out: INH
Sequence of Cytochrome P450 2C19 (P33261 whole entry): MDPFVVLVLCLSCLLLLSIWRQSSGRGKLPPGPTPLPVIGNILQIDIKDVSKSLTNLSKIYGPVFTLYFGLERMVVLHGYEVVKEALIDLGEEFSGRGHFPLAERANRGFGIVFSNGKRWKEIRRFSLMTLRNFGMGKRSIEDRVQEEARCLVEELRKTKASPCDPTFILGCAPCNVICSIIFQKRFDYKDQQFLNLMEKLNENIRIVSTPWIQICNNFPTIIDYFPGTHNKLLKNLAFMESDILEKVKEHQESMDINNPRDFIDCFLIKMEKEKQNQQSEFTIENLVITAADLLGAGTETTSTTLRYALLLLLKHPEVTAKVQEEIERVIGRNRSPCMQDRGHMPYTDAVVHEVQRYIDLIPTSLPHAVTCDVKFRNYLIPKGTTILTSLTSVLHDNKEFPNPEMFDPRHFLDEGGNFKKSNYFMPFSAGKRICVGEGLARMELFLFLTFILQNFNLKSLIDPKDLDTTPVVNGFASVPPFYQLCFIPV

Cytochrome P450 2C9 = Cytochrome P450 2C9 (Homo sapiens, UniProt P11712); assay: Inhibition of CYP2C9 in human liver microsomes using tolbutamide as substrate incubated for 10 mins in presence of NADPH by UHPLC-MS/MS analysis; assay type: ADME
Sequence of Cytochrome P450 2C9 (P11712 whole entry): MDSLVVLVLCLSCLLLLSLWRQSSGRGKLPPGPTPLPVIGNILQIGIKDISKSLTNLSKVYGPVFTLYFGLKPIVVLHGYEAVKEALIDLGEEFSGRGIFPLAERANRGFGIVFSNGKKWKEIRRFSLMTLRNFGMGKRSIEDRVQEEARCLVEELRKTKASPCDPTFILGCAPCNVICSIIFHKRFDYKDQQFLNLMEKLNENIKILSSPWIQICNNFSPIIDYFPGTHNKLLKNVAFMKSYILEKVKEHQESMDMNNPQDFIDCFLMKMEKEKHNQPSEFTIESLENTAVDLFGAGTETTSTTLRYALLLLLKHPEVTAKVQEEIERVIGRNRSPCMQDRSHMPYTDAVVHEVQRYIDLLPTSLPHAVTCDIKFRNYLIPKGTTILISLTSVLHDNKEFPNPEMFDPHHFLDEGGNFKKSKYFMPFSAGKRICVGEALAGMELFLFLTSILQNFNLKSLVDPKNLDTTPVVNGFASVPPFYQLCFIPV

Cytochrome P450 1A2 = target: T2, Cytochrome P450 1A2 (Homo sapiens, UniProt P05177); assay: Inhibition of CYP1A2 in human liver microsomes using phenacetin as substrate incubated for 10 mins in presence of NADPH by UHPLC-MS/MS analysis; assay type: ADME
T2 sequence (P05177 whole entry): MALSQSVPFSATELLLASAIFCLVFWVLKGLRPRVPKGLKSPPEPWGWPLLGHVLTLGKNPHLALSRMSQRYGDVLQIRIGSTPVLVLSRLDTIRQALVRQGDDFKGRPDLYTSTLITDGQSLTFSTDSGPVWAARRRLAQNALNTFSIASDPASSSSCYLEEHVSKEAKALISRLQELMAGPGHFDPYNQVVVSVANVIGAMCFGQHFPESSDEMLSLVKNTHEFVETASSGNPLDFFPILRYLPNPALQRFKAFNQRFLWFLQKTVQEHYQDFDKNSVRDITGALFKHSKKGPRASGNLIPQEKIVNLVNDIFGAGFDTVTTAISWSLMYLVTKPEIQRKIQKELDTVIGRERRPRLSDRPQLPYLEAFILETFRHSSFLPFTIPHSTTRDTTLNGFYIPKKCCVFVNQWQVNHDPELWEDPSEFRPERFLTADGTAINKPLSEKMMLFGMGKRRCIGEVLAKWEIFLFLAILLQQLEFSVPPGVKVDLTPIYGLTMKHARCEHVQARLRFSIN

[16] = Oral bioavailability in C57BL/6 mouse at 3 mg/kg measured up to 24 hrs; assay type: ADME, organism-based; conditions: in vivo
[17] = Clearance in C57BL/6 mouse at 3 mg/kg, po measured up to 24 hrs; assay type: ADME, organism-based; conditions: in vivo
[18] = Half life in C57BL/6 mouse at 3 mg/kg, po measured up to 24 hrs; assay type: ADME, organism-based; conditions: in vivo
[19] = AUC in C57BL/6 mouse at 3 mg/kg, po measured up to 24 hrs; assay type: ADME, organism-based; design: route oral, dose 3 mg/kg, time <=24; conditions: in vivo
[20] = Cmax in C57BL/6 mouse at 3 mg/kg, po measured up to 24 hrs; assay type: ADME, organism-based; design: route oral, dose 3 mg/kg, time <=24; conditions: in vivo
[21] = Oral bioavailability in Beagle dog at 2 mg/kg measured up to 24 hrs; assay type: ADME, organism-based, Canis lupus familiaris; conditions: in vivo
[22] = Clearance in Beagle dog at 2 mg/kg, po measured up to 24 hrs; assay type: ADME, organism-based, Canis lupus familiaris; conditions: in vivo
[23] = Half life in Beagle dog at 2 mg/kg, po measured up to 24 hrs; assay type: ADME, organism-based, Canis lupus familiaris; conditions: in vivo
[24] = AUC in Beagle dog at 2 mg/kg, po measured up to 24 hrs; assay type: ADME, organism-based, Canis lupus familiaris; design: route oral, dose 2 mg/kg, time <=24; conditions: in vivo
[25] = Cmax in Beagle dog at 2 mg/kg, po measured up to 24 hrs; assay type: ADME, organism-based, Canis lupus familiaris; design: route oral, dose 2 mg/kg, time <=24; conditions: in vivo
[26] = Oral bioavailability in Sprague-Dawley rat at 3 mg/kg measured up to 24 hrs; assay type: ADME, organism-based; conditions: in vivo
[27] = Clearance in Sprague-Dawley rat at 3 mg/kg, po measured up to 24 hrs; assay type: ADME, organism-based; conditions: in vivo
[28] = Half life in Sprague-Dawley rat at 3 mg/kg, po measured up to 24 hrs; assay type: ADME, organism-based; conditions: in vivo
[29] = AUC in Sprague-Dawley rat at 3 mg/kg, po measured up to 24 hrs; assay type: ADME, organism-based; design: route oral, dose 3 mg/kg, time <=24; conditions: in vivo
[30] = Cmax in Sprague-Dawley rat at 3 mg/kg, po measured up to 24 hrs; assay type: ADME, organism-based; design: route oral, dose 3 mg/kg, time <=24; conditions: in vivo
MC-38 [31] = assay: Antitumor activity against mouse MC38 cells xenografted in humanized PD-1 mouse assessed as tumor growth inhibition at 100 mg/kg, po bid for 14 days in combination with PD-1 antibody at 3 mg/kg, ip qod for 8 days by digital caliper method relative to control; assay type: functional; conditions: MC-38, 336 h, time 14 day, read-out: TGI
[32] = Toxicity in humanized PD-1 mouse xenografted with mouse MC38 cells assessed as effect on body weight at 100 mg/kg, po bid for 14 days in combination with PD-1 antibody at 3 mg/kg, ip qod for 8 days; assay type: organism-based; conditions: in vivo, 336 h, time 14 day

T1 sequence (P14902 whole entry): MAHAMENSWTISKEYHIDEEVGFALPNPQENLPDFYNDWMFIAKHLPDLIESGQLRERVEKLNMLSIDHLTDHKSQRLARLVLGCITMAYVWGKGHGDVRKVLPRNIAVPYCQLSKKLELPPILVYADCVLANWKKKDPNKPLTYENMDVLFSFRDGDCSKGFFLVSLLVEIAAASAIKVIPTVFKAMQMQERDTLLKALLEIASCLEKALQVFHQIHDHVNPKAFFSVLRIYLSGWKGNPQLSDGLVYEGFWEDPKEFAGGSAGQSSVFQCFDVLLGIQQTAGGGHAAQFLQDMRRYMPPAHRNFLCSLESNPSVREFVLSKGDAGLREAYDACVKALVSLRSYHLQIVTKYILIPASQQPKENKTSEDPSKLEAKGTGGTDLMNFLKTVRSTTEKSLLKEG

Compound: O=C(/C(=N/O)Nc1ccc(F)c(Br)c1)C1CCN(S(=O)(=O)NCc2ccccc2)CC1
IC50 [1]: 262 nM | IC50 [2]: 24 nM | IC50 [3]: > 100000 nM

Compound: O=C(/C(=N/O)Nc1ccc(F)c(Br)c1)C1CCN(C(=O)c2ccccc2)CC1
IC50 [1]: 281 nM | IC50 [2]: 106 nM | IC50 [3]: > 100000 nM

Compound: NS(=O)(=O)NCCNc1nonc1C(=NO)Nc1ccc(F)c(Br)c1 [EPACADOSTAT]
inhibition in vivo at 100 mg/kg (MC-38 [31]): 66.9% | half-life [10]: 4.88 h | half-life [11]: 1.22 h | fraction unbound [12]: 0.015 | fraction unbound [13]: 0.025 | fraction unbound [14]: 0.03 | INH [15]: > 30 µM | INH (Cytochrome P450 3A4): > 10 µM | INH (Cytochrome P450 2D6): > 10 µM | IC50 (Cytochrome P450 2C19): > 10000 nM | INH (Cytochrome P450 2C9): > 10 µM | INH (Cytochrome P450 1A2): > 10 µM | bioavailability [16]: 44% | clearance [17]: 49.2 mL/min/kg | half-life [18]: 2.41 h | AUC at 24 h [19]: 1020 ng·h/mL | Cmax [20]: 253 ng/mL | bioavailability [21]: 50% | clearance [22]: 36.6 mL/min/kg | half-life [23]: 5.03 h | AUC at 24 h [24]: 676 ng·h/mL | Cmax [25]: 245 ng/mL | bioavailability [26]: 55% | clearance [27]: 29 mL/min/kg | half-life [28]: 2.73 h | AUC at 24 h [29]: 807 ng·h/mL | Cmax [30]: 133 ng/mL | Activity [32]: Non-Toxic | IC50 [3]: > 100000 nM

Compound: O=C(/C(=N/O)Nc1ccc(F)c(Br)c1)C1CCN(c2ccccc2)CC1
IC50 [1]: 1020 nM | IC50 [2]: 149 nM | IC50 [3]: > 100000 nM

Compound: O=C(/C(=N/O)Nc1ccc(F)c(Br)c1)c1ccco1
IC50 [1]: 1680 nM | IC50 [2]: 467 nM | IC50 [3]: > 100000 nM

Stronger by IC50 [3], values ahead:

IC50 [1]: 204 nM | IC50 [2]: 80 nM | IC50 [3]: 81000 nM
Compound: O=C(NC[C@H]1CC[C@H](C(=O)/C(=N/O)Nc2ccc(F)c(Br)c2)CC1)c1ccccc1

IC50 [1]: 63 nM | IC50 [2]: 132 nM | IC50 [3]: 79300 nM
Compound: O=C(/C(=N/O)Nc1ccc(F)c(Br)c1)C1CCCCC1

IC50 [1]: 150 nM | IC50 [2]: 98 nM | IC50 [3]: 65700 nM
Compound: O=C(/C(=N/O)Nc1ccc(F)c(Br)c1)C1CCN(S(=O)(=O)Nc2ccccc2)CC1

inhibition [9]: 87.8% | half-life [10]: 5.81 h | half-life [11]: 1.56 h | fraction unbound [12]: 0.036 | fraction unbound [13]: 0.04 | fraction unbound [14]: 0.076 | INH (Cytochrome P450 3A4): > 10 µM | INH (Cytochrome P450 2D6): > 10 µM | IC50 (Cytochrome P450 2C19): > 10000 nM | INH (Cytochrome P450 2C9): > 10 µM | INH (Cytochrome P450 1A2): > 10 µM | bioavailability [16]: 44% | clearance [17]: 61.2 mL/min/kg | half-life [18]: 1.21 h | AUC at 24 h [19]: 358 ng·h/mL | Cmax [20]: 127 ng/mL | bioavailability [21]: 102% | clearance [22]: 9.3 mL/min/kg | half-life [23]: 3.04 h | AUC at 24 h [24]: 3630 ng·h/mL | Cmax [25]: 742 ng/mL | bioavailability [26]: 58.8% | clearance [27]: 16.7 mL/min/kg | half-life [28]: 6.14 h | AUC at 24 h [29]: 1530 ng·h/mL | Cmax [30]: 179 ng/mL | IC50 [1]: 45 nM | IC50 [2]: 63 nM | IC50 [3]: 62500 nM
Compound: NS(=O)(=O)N1CCC(C(=O)/C(=N/O)Nc2ccc(F)c(Br)c2)CC1
Activity [4]: Non-Toxic | TGI (MC-38 [5]): Dose-dependent effect | inhibition in vivo at 600 mg/kg (MC-38 [6]): 86.8% | inhibition in vivo at 300 mg/kg (MC-38 [7]): 71.7% | inhibition in vivo at 150 mg/kg (MC-38 [8]): 60.3% | INH [15]: > 30 µM

IC50 [1]: 1770 nM | IC50 [2]: 51 nM | IC50 [3]: 11800 nM
Compound: O=C(/C(=N/O)Nc1ccc(F)c(Br)c1)c1cncs1
